Data published in US12570662B2, “Substituted pyrrolo[1,2-b]pyridazines as bifunctional degraders of interleukin-1 receptor-associated kinases” (Nurix Therapeutics, Inc., priority 2021, dated 2026).

Molecular target: T1, IRAK4 (Homo sapiens, UniProt Q9NWZ3)
T1 construct: C-terminal HiBiT-tagged Jurkat cells (polyclonal cell line or clone 8D5); endogenous in cells; host or cells: Jurkat cells (polyclonal cell line or clone 8D5), HiBiT-tagged
T1 sequence (Q9NWZ3 1-460): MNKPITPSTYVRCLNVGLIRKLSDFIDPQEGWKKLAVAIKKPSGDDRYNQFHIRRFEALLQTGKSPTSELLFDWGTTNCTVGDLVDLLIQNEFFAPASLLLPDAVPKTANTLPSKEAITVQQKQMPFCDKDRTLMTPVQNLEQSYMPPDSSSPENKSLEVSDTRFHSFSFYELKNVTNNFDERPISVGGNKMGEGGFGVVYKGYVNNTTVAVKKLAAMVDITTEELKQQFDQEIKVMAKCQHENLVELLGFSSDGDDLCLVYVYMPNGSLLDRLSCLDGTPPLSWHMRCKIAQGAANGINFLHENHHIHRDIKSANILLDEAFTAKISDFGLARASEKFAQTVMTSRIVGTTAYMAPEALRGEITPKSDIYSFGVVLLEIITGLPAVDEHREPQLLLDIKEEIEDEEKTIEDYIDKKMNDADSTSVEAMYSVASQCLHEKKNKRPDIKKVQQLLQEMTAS
Experiment: IRAK4 Degradation HiBit Assay
Assay type: cell-based
Conditions: C-terminal HiBiT-tagged Jurkat cells, 4 hrs incubation; for DC50: % IRAK4 remaining, four-parameter fit (IC50 used as DC50); for Dmax: from fit of % IRAK4 remaining, read-out: Dmax
How it was run: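 Jurkat cells carrying C-terminal HiBiT-tagged IRAK4 (polyclonal or clone 8D5) exposed to compound, 10 μM–0.1 nM final over 11 points, for 4 h at 32 °C. Remaining IRAK4 measured by lytic HiBiT/LgBiT luminescence relative to DMSO. DC50 and Dmax taken from four-parameter variable-slope fits.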

With CNc1cc(-c2ccc3cc(C#N)cnn23)ncc1-c1nnc([C@H]2CC[C@H](CN3CCC(c4ccc([C@@H]5CCC(=O)NC5=O)cn4)CC3)CC2)s1 (racemic) [Example 38, 7-[4-(methylamino)-5-{5-[(1r,4r)-4-[(4-{5-[(3RS)-2,6-dioxopiperidin-3-yl]pyridin-2-yl}piperidin-1-yl)methyl]cyclohexyl]-1,3,4-thiadiazol-2-yl}pyridin-2-yl]pyrrolo[1,2-b]pyridazine-3-carbonitrile] the DC50 was 12 nM and the Dmax was 109%.

Work on CNc1cc(-c2ccc3cc(C#N)cnn23)ncc1-c1nnc([C@H]2CC[C@H](C(=O)N3CCN(c4ccc([C@@H]5CCC(=O)NC5=O)cn4)CC3)CC2)s1 (racemic) [Example 39, 7-[4-(methylamino)-5-{5-[(1r,4r)-4-(4-{5-[(3RS)-2,6-dioxopiperidin-3-yl]pyridin-2-yl}piperazine-1-carbonyl)cyclohexyl]-1,3,4-thiadiazol-2-yl}pyridin-2-yl]pyrrolo[1,2-b]pyridazine-3-carbonitrile] yielded a DC50 of 19 nM and a Dmax of 108%.

With CNc1cc(-c2ccc3cc(C#N)cnn23)ncc1-c1nnc(N2CC3(CCN(C(=O)C4CCN(c5ccc(C6CCC(=O)NC6=O)cn5)CC4)CC3)C2)s1 (racemic) [Example 40, rac-7-(5-{5-[7-(1-{5-[(3R)-2,6-dioxopiperidin-3-yl]pyridin-2-yl}piperidine-4-carbonyl)-2,7-diazaspiro[3.5]nonan-2-yl]-1,3,4-thiadiazol-2-yl}-4-(methylamino)pyridin-2-yl)pyrrolo[1,2-b]pyridazine-3-carbonitrile] the DC50 was 19 nM and the Dmax was 114%.

For N#Cc1cnn2c(-c3cc(NC4CCOCC4)c(-c4nnc(N5CCN(CC6CCN(c7ccc(C8CCC(=O)NC8=O)cn7)CC6)CC5)s4)cn3)ccc2c1 (racemic) [Example 43, 7-(5-{5-[4-({1-[5-(2,6-dioxopiperidin-3-yl)pyridin-2-yl]piperidin-4-yl}methyl)piperazin-1-yl]-1,3,4-thiadiazol-2-yl}-4-(oxan-4-ylamino)pyridin-2-yl)pyrrolo[1,2-b]pyridazine-3-carbonitrile], the DC50 was 14 nM and the Dmax was 111%.

For CNc1cc(-c2ccc3cc(C#N)cnn23)ncc1-c1nnc([C@H]2CC[C@H](CN3CCN(c4ccc([C@@H]5CCC(=O)NC5=O)cn4)CC3)CC2)s1 (racemic) [Example 44, 7-[4-(methylamino)-5-{5-[(1r,4r)-4-[(4-{5-[(3RS)-2,6-dioxopiperidin-3-yl]pyridin-2-yl}piperazin-1-yl)methyl]cyclohexyl]-1,3,4-thiadiazol-2-yl}pyridin-2-yl]pyrrolo[1,2-b]pyridazine-3-carbonitrile], the DC50 was 12 nM and the Dmax was 114%.

For CNc1cc(-c2ccc3cc(C#N)cnn23)ncc1-c1nnc(N2CCN(C(=O)CC[C@@H]3CCN(c4ccc([C@@H]5CCC(=O)NC5=O)cn4)C3)CC2)s1 (racemic) [Example 45, 7-{5-[5-(4-{3-[(3RS)-1-{5-[(3RS&)-2,6-dioxopiperidin-3-yl]pyridin-2-yl}pyrrolidin-3-yl]propanoyl}piperazin-1-yl)-1,3,4-thiadiazol-2-yl]-4-(methylamino)pyridin-2-yl}pyrrolo[1,2-b]pyridazine-3-carbonitrile], the DC50 was 13 nM and the Dmax was 113%.

CNc1cc(-c2ccc3cc(C#N)cnn23)ncc1-c1nnc(N2CC3CCC(C2)N3C(=O)C2CCN(c3ccc([C@H]4CCC(=O)NC4=O)cn3)CC2)s1 (racemic) [Example 46, rac-7-(5-{5-[8-(1-{5-[(3R)-2,6-dioxopiperidin-3-yl]pyridin-2-yl}piperidine-4-carbonyl)-3,8-diazabicyclo[3.2.1]octan-3-yl]-1,3,4-thiadiazol-2-yl}-4-(methylamino)pyridin-2-yl)pyrrolo[1,2-b]pyridazine-3-carbonitrile] gave a DC50 of 6 nM and a Dmax of 111%.

For CNc1cc(-c2ccc3cc(C#N)cnn23)ncc1-c1nnc(C23CCC(NC(=O)C4CCN(c5ccc(C6CCC(=O)NC6=O)cn5)CC4)(CC2)CC3)s1 (racemic) [Example 47, rac-N-{4-[5-(6-{3-cyanopyrrolo[1,2-b]pyridazin-7-yl}-4-(methylamino)pyridin-3-yl)-1,3,4-thiadiazol-2-yl]bicyclo[2.2.2]octan-1-yl}-1-{5-[(3R)-2,6-dioxopiperidin-3-yl]pyridin-2-yl}piperidine-4-carboxamide], the DC50 was 15 nM and the Dmax was 111%.

CC(C)Nc1cc(-c2ccc3cc(C#N)cnn23)ncc1-c1nnc(N2CCN(C(=O)C3CCN(c4ccc(C5CCC(=O)NC5=O)cn4)CC3)CC2)s1 (racemic) [Example 48, rac-7-(5-{5-[4-(1-{5-[(3R)-2,6-dioxopiperidin-3-yl]pyridin-2-yl}piperidine-4-carbonyl)piperazin-1-yl]-1,3,4-thiadiazol-2-yl}-4-[(propan-2-yl)amino]pyridin-2-yl)pyrrolo[1,2-b]pyridazine-3-carbonitrile] gave a DC50 of 23 nM and a Dmax of 109%.

CNc1cc(-c2ccc3cc(C#N)cnn23)ncc1-c1nnc([C@H]2CC[C@H](N(C)C(=O)C3CCN(c4ccc([C@@H]5CCC(=O)NC5=O)cn4)CC3)CC2)s1 (racemic) [Example 49, 1-{5-[(3RS)-2,6-dioxopiperidin-3-yl]pyridin-2-yl}-N-methyl-N-[(1r,4r)-4-[5-(6-{3-cyanopyrrolo[1,2-b]pyridazin-7-yl}-4-(methylamino)pyridin-3-yl)-1,3,4-thiadiazol-2-yl]cyclohexyl]piperidine-4-carboxamide] showed a DC50 of 13 nM and a Dmax of 112%.

With CNc1cc(-c2ccc3cc(C#N)cnn23)ncc1-c1nnc(N2CCC(N3CCN(CC4CCN(c5ccc(C6CCC(=O)NC6=O)cn5)CC4)CC3)CC2)s1 (racemic) [Example 50, 7-[5-(5-{4-[4-({1-[5-(2,6-dioxopiperidin-3-yl)pyridin-2-yl]piperidin-4-yl}methyl)piperazin-1-yl]piperidin-1-yl}-1,3,4-thiadiazol-2-yl)-4-(methylamino)pyridin-2-yl]pyrrolo[1,2-b]pyridazine-3-carbonitrile] the DC50 was 91 nM and the Dmax was 111%.

CNc1cc(-c2ccc3cc(C#N)cnn23)ncc1-c1nnc(N2CCN(C(=O)C3CCN(c4ccc(C5CCC(=O)NC5=O)cn4)CC3)CC2)s1 (racemic) [Example 51, 7-{5-[5-(4-{1-[5-(2,6-dioxopiperidin-3-yl)pyridin-2-yl]piperidine-4-carbonyl}piperazin-1-yl)-1,3,4-thiadiazol-2-yl]-4-(methylamino)pyridin-2-yl}pyrrolo[1,2-b]pyridazine-3-carbonitrile] was tested, and the DC50 was 10 nM and the Dmax was 112%.

CNc1cc(-c2ccc3cc(C#N)cnn23)ncc1-c1nnc([C@H]2CC[C@H](N(C)CC3CCN(c4ccc([C@@H]5CCC(=O)NC5=O)cn4)CC3)CC2)s1 (racemic) [Example 52, 7-[4-(methylamino)-5-{5-[(1r,4r)-4-{[(1-{5-[(3RS)-2,6-dioxopiperidin-3-yl]pyridin-2-yl}piperidin-4-yl)methyl](methyl)amino}cyclohexyl]-1,3,4-thiadiazol-2-yl}pyridin-2-yl]pyrrolo[1,2-b]pyridazine-3-carbonitrile] was tested, and the DC50 was 19 nM and the Dmax was 113%.

CNc1cc(-c2ccc3cc(C#N)cnn23)ncc1-c1nnc(N2CCN(C3CCN(CC4CCN(c5ccc(C6CCC(=O)NC6=O)cn5)CC4)CC3)CC2)s1 (racemic) [Example 53, rac-7-{5-[5-(4-{1-[(1-{5-[(3R)-2,6-dioxopiperidin-3-yl]pyridin-2-yl}piperidin-4-yl)methyl]piperidin-4-yl}piperazin-1-yl)-1,3,4-thiadiazol-2-yl]-4-(methylamino)pyridin-2-yl}pyrrolo[1,2-b]pyridazine-3-carbonitrile] showed a DC50 of 64 nM and a Dmax of 114%.

CNc1cc(-c2ccc3cc(C#N)cnn23)ncc1-c1nnc(N2CCC(C3CCN(CC4CCN(c5ccc(C6CCC(=O)NC6=O)cn5)CC4)CC3)CC2)s1 (racemic) [Example 54, rac-7-[5-(5-{1′-[(1-{5-[(3R)-2,6-dioxopiperidin-3-yl]pyridin-2-yl}piperidin-4-yl)methyl]-[4,4′-bipiperidin]-1-yl}-1,3,4-thiadiazol-2-yl)-4-(methylamino)pyridin-2-yl]pyrrolo[1,2-b]pyridazine-3-carbonitrile] showed a DC50 of 95 nM and a Dmax of 112%.

With CNc1cc(-c2ccc3cc(C#N)cnn23)ncc1-c1nnc(N2CC3(CCN(CC4CCN(c5ccc(C6CCC(=O)NC6=O)cn5)CC4)CC3)C2)s1 (racemic) [Example 55, rac-7-[5-(5-{7-[(1-{5-[(3R)-2,6-dioxopiperidin-3-yl]pyridin-2-yl}piperidin-4-yl)methyl]-2,7-diazaspiro[3.5]nonan-2-yl}-1,3,4-thiadiazol-2-yl)-4-(methylamino)pyridin-2-yl]pyrrolo[1,2-b]pyridazine-3-carbonitrile] the DC50 was 61 nM and the Dmax was 109%.

In the case of CC(C)Nc1cc(-c2ccc3cc(C#N)cnn23)ncc1-c1nnc(N2CCN(CC3CCN(c4ccc(C5CCC(=O)NC5=O)cn4)CC3)CC2)s1 (racemic) [Example 56, rac-7-[5-(5-{4-[(1-{5-[(3R)-2,6-dioxopiperidin-3-yl]pyridin-2-yl}piperidin-4-yl)methyl]piperazin-1-yl}-1,3,4-thiadiazol-2-yl)-4-[(propan-2-yl)amino]pyridin-2-yl]pyrrolo[1,2-b]pyridazine-3-carbonitrile], the DC50 is reported as 160 nM and the Dmax is reported as 102%.
